Data taken from ChEMBL document CHEMBL1201862, “PubChem BioAssay data set” (2004).
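Protocol summary: plate cells (96-well), add compound at 5 concentrations, incubate 48 h, interpolate endpoints linearly. GI50 marks 50% less growth.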 Active and inactive are the calls of the source. Cut-off read from the data, not from the text of the source: active = GI50 up to about 1.1 µM and inactive = higher. Non-standard residues stand in square brackets, D forms with d. Residues, ends and D or L forms follow the SMILES beside them. ξ: configuration not given here. *: point of attachment. ξF = NC(Cc1ccccc1)C(=O)O; Cbz = O=C(OCc1ccccc1)*

Legend:
Experiment in all cases: NCI tumour cell line growth inhibition, 48 h
[1] = test system: LOX IMVI
[2] = test system: TK-10
[3] = test system: MDA-MB-231
[4] = test system: Malme-3M
[5] = test system: SK-MEL-28
[6] = test system: ACHN
[7] = test system: MDA-N
[8] = test system: BT-549
[9] = test system: M14
[10] = test system: SNB-19
[11] = test system: OVCAR-3
[12] = test system: UACC-257
[13] = test system: SN12C
[14] = test system: DU-145
[15] = test system: RPMI-8226
[16] = test system: SK-OV-3
[17] = test system: SK-MEL-5
[18] = test system: MOLT-4

Measured: GI50

CSc1nc(SC)c2ncn(C3CC(Oc4ccc(C)cc4)C(COc4ccc(C)cc4)O3)c2n1 (stereo unspecified)
inactive: [1] > 100 µM | [2] > 100 µM | [3] > 100 µM | [4] > 100 µM | [5] > 100 µM | [6] > 100 µM | [7] > 100 µM | [8] > 100 µM | [9] > 100 µM | [10] > 100 µM | [11] > 100 µM | [12] > 100 µM | [13] > 100 µM | [14] > 100 µM | [15] 8.71 µM | [16] > 100 µM | [17] > 100 µM

O=C(O)CN1CCN2CCOCCOCCN(CC1)CCN(CC(=O)O)CC2
inactive: [1] > 100 µM | [2] > 100 µM | [3] > 100 µM | [4] > 100 µM | [5] > 100 µM | [6] > 100 µM | [7] > 100 µM | [8] > 100 µM | [9] > 100 µM | [10] > 100 µM | [11] > 100 µM | [12] > 100 µM | [13] > 100 µM | [14] > 100 µM | [15] > 100 µM | [16] > 100 µM | [17] > 100 µM

Nc1nc(NNc2ccccc2F)cc(=O)[nH]1
inactive: [1] 42 µM | [2] > 100 µM | [3] > 100 µM | [4] > 100 µM | [18] > 100 µM | [5] > 100 µM | [6] > 100 µM | [7] > 100 µM | [8] > 100 µM | [9] > 100 µM | [10] > 100 µM | [11] > 100 µM | [12] > 100 µM | [13] > 100 µM | [14] > 100 µM | [15] 54.2 µM | [17] > 100 µM

CCOC(=O)CNC(=O)C(Cc1ccccc1)NC(=O)OCc1ccccc1 (stereo unspecified) (Cbz-[ξF]-Gly-OEt)
inactive: [1] > 100 µM | [3] > 100 µM | [4] 86.3 µM | [18] > 100 µM | [6] > 100 µM | [7] > 100 µM | [8] > 100 µM | [9] > 100 µM | [10] > 100 µM | [11] > 100 µM | [13] > 100 µM | [14] > 100 µM | [15] > 100 µM | [16] > 100 µM | [17] > 100 µM
